{
  "source": "patent US20210000912A1",
  "about": "“Compositions And Methods For Prophylaxis Or Treatment Of Pain” (Interk Peptide Therapeutics Limited, priority 2017, published 2021)",
  "key": {"PKG1β (h)": {"biological_target": "T1, PKG1β (h) (Homo sapiens, UniProt Q13976)", "T1 construct": "purchased Eurofins Pharma Discovery Services UK Ltd (contract assay service)", "T1 sequence (Q13976 1-686 isoform Q13976-2)": "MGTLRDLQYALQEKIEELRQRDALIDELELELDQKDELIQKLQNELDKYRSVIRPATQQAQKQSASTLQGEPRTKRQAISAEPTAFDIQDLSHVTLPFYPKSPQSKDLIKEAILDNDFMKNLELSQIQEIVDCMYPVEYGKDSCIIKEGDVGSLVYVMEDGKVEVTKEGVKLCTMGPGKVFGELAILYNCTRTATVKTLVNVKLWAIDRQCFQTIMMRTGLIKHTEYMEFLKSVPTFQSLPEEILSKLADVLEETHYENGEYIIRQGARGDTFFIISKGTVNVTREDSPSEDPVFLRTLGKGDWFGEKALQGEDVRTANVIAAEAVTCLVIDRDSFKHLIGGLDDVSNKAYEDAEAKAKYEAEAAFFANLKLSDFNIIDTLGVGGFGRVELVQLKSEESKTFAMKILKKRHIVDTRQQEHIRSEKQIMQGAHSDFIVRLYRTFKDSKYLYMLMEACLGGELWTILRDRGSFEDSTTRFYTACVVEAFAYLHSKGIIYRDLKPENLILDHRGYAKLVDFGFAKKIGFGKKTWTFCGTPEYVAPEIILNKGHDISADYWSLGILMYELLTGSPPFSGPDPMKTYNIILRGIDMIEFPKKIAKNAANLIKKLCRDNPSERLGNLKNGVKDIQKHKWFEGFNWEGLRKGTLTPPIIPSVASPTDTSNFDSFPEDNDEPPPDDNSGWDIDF", "experiment": "PKG1β kinase activity assay, cell free", "assay_type": "biochemical", "description": "The capacity of test peptides to inhibit the activity of the kinases PKG1α, PKG1β, and Src family kinases in a cell free assay was assessed. The test peptides were amidated at their C-terminal end (indicated by “—NH2”) unless otherwise noted. Kinase activity assays were conducted by Eurofins Pharma Discovery Services UK Ltd (Dundee Technology Park, Dundee, United Kingdom) and Reaction Biology Corp. (Malvern, Pa., USA).\nAll test peptides are prepared to 50× final assay concentration in 100% DMSO. This working stock of the test compound is added to assay wells as the first component in the reaction, followed by the remaining components of the respective assay protocols described below. There is no pre-incubation step between the test peptide and the kinase prior to initiation of the reaction. The kinases are diluted in buffer (20 mM MOPS, 1 mM EDTA, 0.01% Brij-35, 5% Glycerol, 0.1% β-mercaptoethanol, 1 mg/mL BSA) prior to addition to the reaction mix.\nPositive control wells contain all components of the reaction, except the test peptide of interest. However, DMSO (at a final concentration of 2%) is included in positive control wells to control for solvent effects. Negative control wells contain all components of the reaction, with a reference inhibitor (staurosporine) replacing the test peptide. This abolishes kinase activity and establishes a base-line (0% kinase activity). Kinase assay protocols (Eurofins Pharma Discovery Services UK Ltd, Dundee Technology Park, Dundee, United Kingdom) are described below. Of the Src family kinases, only the assay protocol for c-Src is shown.\nPKG1b(h) is incubated with 8 mM MOPS pH 7.0, 0.2 mM EDTA, 10 μM cGMP, 200 μM RRRLSFAEPG, 10 mM magnesium acetate and [γ-^33P]-ATP (specific activity approx. 500 cpm/pmol, concentration as required). The reaction is initiated by the addition of the MgATP mix. After incubation for 40 minutes at room temperature, the reaction is stopped by the addition of 3% phosphoric acid solution. A 10 μL aliquot of the reaction is then spotted onto a P30 filtermat and washed three times for 5 mins in 75 mM phosphoric acid and once in methanol prior to drying and scintillation counting."}, "nerve injured rats": {"test_system": "nerve injured rats", "experiment": "Intrathecal testing in neuropathic pain model, von Frey paw withdrawal threshold", "assay_type": "in vivo, Sprague-Dawley rats", "details": "administered intrathecally, on a molar basis", "description": "Experiments were performed on male Sprague-Dawley rats weighing 300-400 g at the start of experiments. Animals were housed 2 or 3 per cage until cannula surgery, after which time they were singly housed for 4 days until the day of experiment. Animals were maintained on standard 12-h light/dark cycle with food and water available ad libitum.\nAfter baseline von Frey measures were taken, animals underwent partial nerve ligation (PNL) surgery, as previously described (Seltzer, Z., Dubner, R., Shir, Y., 1990. A novel behavioural-model of neuropathic pain disorders produced in rats by partial sciatic-nerve injury. Pain 43, 205-218). Briefly, animals were deeply anaesthetised using isoflurane (2.0-2.5% in oxygen), and the sciatic nerve of the left hind-leg was exposed via blunt dissection of the biceps femoris at a site near the trochanter, just distal to the posterior biceps semitendinosus nerve branches of the common sciatic nerve. A 6-0 silk suture was used to tightly ligate the dorsal 30-50% of the nerve. […]\nMechanical paw withdrawal threshold (PWT) was measured using a series of von Frey hairs with bending pressures ranging from 0.41 to 15.1 g. […] The mechanical PWT was calculated using the up-down paradigm (Dixon, W. J., 1980. Efficient analysis of experimental-observations. Annual Review of Pharmacology and Toxicology 20, 441-462). […]"}},
  "data": [
    {"smiles": "N=C(N)NCCC[C@H](NC(=O)[C@H](CCCNC(=N)N)NC(=O)[C@H](CCCNC(=N)N)NC(=O)[C@H](CCCNC(=N)N)NC(=O)[C@H](CCCNC(=N)N)NC(=O)[C@H](CCCNC(=N)N)NC(=O)[C@H](CCCNC(=N)N)NC(=O)[C@H](CCCNC(=N)N)NC(=O)[C@H](CCCNC(=N)N)NC(=O)[C@H](CCCNC(=N)N)NC(=O)[C@H](CCCNC(=N)N)NC(=O)[C@H](CCCNC(=N)N)NC(=O)[C@H](CCCNC(=N)N)NC(=O)[C@@H](N)CCCNC(=N)N)C(N)=O", "note": "[IK01400, RRRRRRRRRRRRRR-NH2]", "values": [
      {"measurement": "IC50", "setting": "PKG1β (h)", "result": 5.3, "unit": "nM"},
      {"measurement": "PKG1β IC50", "setting": "PKG1β (h); cell free, 10 μM cGMP, 40 minutes at room temperature", "result": "single digit nanomolar range"},
      {"measurement": "alleviating neuropathic pain (ipsilateral von Frey PWT) compared to morphine", "setting": "nerve injured rats", "result": "more effective in alleviating neuropathic pain than morphine on a molar basis"}
    ]}
  ]
}
